This note sets out measurements from patent US10670605B2, “Cysteine reactive probes and uses thereof” (The Scripps Research Institute, priority 2015, dated 2020).

Holding throughout (assay): Competitive isoTOP-ABPP in situ (fragment-treated cells)
Format in all cases: cell-based

In test [1] the target is T1, cysteines in MDA-MB-231 and Ramos cells (Homo sapiens, UniProt Q96RU2).
T1 sequence (Q96RU2 1-1077): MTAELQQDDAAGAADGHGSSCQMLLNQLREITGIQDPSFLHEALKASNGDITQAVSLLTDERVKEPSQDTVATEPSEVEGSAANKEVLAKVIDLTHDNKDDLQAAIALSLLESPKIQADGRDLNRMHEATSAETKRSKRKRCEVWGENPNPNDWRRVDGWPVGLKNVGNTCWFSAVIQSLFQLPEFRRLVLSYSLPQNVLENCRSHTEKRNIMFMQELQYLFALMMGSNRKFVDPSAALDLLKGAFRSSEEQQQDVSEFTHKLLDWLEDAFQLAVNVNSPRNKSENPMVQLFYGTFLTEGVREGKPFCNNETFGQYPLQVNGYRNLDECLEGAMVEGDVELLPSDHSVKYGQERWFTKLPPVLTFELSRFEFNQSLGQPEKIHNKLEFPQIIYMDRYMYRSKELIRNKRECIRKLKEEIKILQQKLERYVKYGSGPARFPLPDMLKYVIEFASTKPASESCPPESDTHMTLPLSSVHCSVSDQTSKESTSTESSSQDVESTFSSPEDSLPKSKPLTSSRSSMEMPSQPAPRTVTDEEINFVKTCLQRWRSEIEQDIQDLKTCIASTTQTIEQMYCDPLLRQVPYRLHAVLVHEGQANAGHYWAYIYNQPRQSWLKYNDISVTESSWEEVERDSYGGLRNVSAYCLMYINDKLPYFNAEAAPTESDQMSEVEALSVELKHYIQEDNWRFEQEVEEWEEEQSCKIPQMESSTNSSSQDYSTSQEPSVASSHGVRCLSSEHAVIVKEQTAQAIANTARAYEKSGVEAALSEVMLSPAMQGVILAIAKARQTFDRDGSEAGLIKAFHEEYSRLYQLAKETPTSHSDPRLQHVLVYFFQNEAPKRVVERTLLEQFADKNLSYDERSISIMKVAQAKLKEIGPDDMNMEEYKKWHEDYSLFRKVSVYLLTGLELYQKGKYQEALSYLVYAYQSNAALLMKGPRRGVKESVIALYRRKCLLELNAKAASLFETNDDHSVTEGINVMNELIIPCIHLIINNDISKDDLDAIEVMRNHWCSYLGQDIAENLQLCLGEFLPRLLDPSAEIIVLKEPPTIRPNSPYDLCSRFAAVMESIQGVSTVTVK

Test [2] addresses T2, cysteines in MDA-MB-231 and Ramos cells (Homo sapiens, UniProt Q96C19).
T2 sequence (Q96C19 1-240): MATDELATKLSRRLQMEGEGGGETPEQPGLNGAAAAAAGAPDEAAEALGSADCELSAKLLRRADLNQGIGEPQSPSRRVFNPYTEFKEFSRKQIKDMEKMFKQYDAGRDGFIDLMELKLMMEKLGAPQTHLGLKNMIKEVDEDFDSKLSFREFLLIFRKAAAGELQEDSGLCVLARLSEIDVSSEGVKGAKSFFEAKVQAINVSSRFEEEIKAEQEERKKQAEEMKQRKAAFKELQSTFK

The target in test [3] is cysteines in MDA-MB-231 and Ramos cells (Homo sapiens, UniProt O75362).
Test [4] concerns the target T3, cysteines in MDA-MB-231 and Ramos cells (Homo sapiens, UniProt P09110).
T3 sequence (P09110 27-424): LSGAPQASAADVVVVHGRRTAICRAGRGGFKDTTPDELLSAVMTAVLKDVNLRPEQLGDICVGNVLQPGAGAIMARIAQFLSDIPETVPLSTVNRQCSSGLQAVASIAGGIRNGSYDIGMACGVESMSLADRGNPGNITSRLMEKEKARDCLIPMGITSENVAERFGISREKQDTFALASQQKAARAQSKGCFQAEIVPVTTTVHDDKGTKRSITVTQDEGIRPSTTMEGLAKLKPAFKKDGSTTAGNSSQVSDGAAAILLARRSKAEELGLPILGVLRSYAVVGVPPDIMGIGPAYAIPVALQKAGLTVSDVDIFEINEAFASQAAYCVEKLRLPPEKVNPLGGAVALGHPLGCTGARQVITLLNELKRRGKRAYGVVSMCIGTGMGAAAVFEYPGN

Test [5] has as its target T4, cysteines in MDA-MB-231 and Ramos cells (Homo sapiens, UniProt Q15345).
T4 sequence (Q15345 1-812): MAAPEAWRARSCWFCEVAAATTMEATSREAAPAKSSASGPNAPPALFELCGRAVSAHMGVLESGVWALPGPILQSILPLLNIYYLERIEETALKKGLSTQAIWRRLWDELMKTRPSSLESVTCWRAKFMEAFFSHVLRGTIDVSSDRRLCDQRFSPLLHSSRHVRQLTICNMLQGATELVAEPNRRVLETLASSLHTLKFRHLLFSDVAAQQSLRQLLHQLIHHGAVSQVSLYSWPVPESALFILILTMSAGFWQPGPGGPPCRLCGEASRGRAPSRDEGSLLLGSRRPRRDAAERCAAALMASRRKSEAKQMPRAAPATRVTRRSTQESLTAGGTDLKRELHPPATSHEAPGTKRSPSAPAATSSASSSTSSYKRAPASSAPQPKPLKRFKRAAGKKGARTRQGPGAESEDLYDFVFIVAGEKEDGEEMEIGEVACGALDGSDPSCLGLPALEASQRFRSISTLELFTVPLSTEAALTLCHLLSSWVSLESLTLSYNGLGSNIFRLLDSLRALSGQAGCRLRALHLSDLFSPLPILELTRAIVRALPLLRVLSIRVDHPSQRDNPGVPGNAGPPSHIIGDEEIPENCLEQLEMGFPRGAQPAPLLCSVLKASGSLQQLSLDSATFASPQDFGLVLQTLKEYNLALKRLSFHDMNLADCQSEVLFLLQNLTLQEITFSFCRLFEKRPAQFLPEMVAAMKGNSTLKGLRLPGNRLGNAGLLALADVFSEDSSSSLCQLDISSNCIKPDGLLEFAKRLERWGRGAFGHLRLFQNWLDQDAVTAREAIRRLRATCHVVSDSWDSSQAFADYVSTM

Chain of cysteines in MDA-MB-231 and Ramos cells (Homo sapiens, UniProt O75362) (O75362 whole entry): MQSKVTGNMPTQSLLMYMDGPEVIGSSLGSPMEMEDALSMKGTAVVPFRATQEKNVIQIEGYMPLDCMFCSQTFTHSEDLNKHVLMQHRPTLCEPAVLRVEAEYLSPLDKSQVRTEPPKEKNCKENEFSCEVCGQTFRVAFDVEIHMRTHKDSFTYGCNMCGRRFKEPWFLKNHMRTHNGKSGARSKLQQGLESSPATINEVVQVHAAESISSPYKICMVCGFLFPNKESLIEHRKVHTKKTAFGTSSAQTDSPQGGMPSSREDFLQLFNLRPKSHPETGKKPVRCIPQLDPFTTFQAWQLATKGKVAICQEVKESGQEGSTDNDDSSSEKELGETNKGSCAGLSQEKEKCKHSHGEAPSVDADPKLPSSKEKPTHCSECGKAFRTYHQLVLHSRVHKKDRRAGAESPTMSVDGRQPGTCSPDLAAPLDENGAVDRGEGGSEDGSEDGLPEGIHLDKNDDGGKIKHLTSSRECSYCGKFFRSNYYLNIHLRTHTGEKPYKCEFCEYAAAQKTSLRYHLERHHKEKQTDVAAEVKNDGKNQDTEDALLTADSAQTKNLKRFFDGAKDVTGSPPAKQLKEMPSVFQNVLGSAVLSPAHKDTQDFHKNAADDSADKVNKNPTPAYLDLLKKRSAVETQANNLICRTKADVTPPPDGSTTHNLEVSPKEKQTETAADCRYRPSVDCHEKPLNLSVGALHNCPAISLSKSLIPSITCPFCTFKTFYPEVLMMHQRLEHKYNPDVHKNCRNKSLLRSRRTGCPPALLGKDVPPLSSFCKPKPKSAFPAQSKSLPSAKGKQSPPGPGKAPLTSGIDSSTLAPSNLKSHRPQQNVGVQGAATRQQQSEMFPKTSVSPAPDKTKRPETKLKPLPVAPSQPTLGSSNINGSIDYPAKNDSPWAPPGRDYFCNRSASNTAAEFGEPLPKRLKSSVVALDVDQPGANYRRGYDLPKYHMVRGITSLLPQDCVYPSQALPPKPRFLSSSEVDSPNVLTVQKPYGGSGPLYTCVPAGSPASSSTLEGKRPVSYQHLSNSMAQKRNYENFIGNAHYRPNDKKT

Consider `COc1ccc(C2CC(c3cccs3)=NN2C(=O)CCl)cc1` (centres unmarked) [compound 4], for which the “isoTOP-ABPP reactivity Q96RU2_C171 USP28” value in test [1] (100 μM in situ 231) came to 20.0. The “isoTOP-ABPP reactivity Q96C19_C172 EFHD2” value in test [2] (100 μM in situ 231) is given as 5.3.

On to `O=C(CCl)Nc1cccc2ncccc12` [compound 51], for which, in test [2] (200 μM, insitu, 231), the “isoTOP-ABPP ratio Q96C19_C172” value is reported as 1.2.

For `CC1CCc2ccccc2N1C(=O)CCl` (centres unmarked) [compound 45], the “isoTOP-ABPP ratio O75362_C286” value in test [3] (200 μM, insitu, 231) came out at 20.0. The “isoTOP-ABPP ratio P09110_C381” value in test [4] (200 μM, insitu, 231) is reported as 1.2.

Turning to `O=C(CCl)NC(=O)NC12CC3CC(CC(C3)C1)C2` [compound 12], in test [3] (200 μM, insitu, 231), the “isoTOP-ABPP ratio O75362_C286” value is 20.0. Also, the “isoTOP-ABPP ratio, cysteine P09110_C381” value in test [4] (200 μM, insitu, 231) is reported as 4.5. Besides, the “isoTOP-ABPP ratio, cysteine Q96RU2_C171” value in test [1] (200 μM, insitu, 231) was found to be 20.0. In addition, the “isoTOP-ABPP ratio Q96C19_C172” value in test [2] (200 μM, insitu, 231) is 0.9.

As for `O=C(CCl)N1CCN(S(=O)(=O)c2ccccc2F)CC1` [compound 10], the “isoTOP-ABPP ratio O75362_C286” value in test [3] (200 μM, insitu, 231) is listed as 2.6. For the same molecule, the “isoTOP-ABPP ratio Q96C19_C172” value in test [2] (200 μM, insitu, 231) is listed as 2.4.

On to `O=C(CCl)N1CCN(CC(=O)N2CCOCC2)CC1` [compound 29], for which the “isoTOP-ABPP ratio O75362_C286” value in test [3] (200 μM, insitu, ramos) was determined as 1.0. Also, the “isoTOP-ABPP ratio Q96C19_C172” value in test [2] (200 μM, insitu, ramos) is on record as 1.2.

`CC(C)CCOCCNC(=O)CCl` [compound 27]: the “isoTOP-ABPP ratio O75362_C286” value in test [3] (200 μM, insitu, 231) worked out at 1.0. For the same molecule, in test [1] (200 μM, insitu, 231), the “isoTOP-ABPP ratio, Q96RU2_C171” value amounted to 1.1.

As to `O=C(CCl)N1CCC(Cc2ccccc2)CC1` [compound 9], the “isoTOP-ABPP reactivity Q96C19_C172 EFHD2” value in test [2] (200 μM, insitu, 231) was found to be 2.8.

For `O=C(CCl)NC12CC3CC(CC(C3)C1)C2` [compound 21], the “isoTOP-ABPP ratio, cysteine Q15345_C297” value in test [5] (200 μM, insitu, 231) is 1.1. In addition, the “isoTOP-ABPP ratio O75362_C286” value in test [3] (200 μM, insitu, 231) is on record as 1.1.

As to `COc1ccc2c(c1)CCCN2C(=O)CCl` [compound 2], in test [3] (200 μM, insitu, 231), the “isoTOP-ABPP reactivity O75362_C286 ZNF217” value came to 8.9.

Take `Cn1cc(S(=O)(=O)N2CCOCC2)cc1C(=O)NC(=O)CCl` [compound 11]: in test [5] (100 μM in situ 231), the “isoTOP-ABPP ratio, cysteine Q15345_C297” value is listed as 1.1. Further, in test [3] (100 μM in situ 231), the “isoTOP-ABPP ratio O75362_C286” value amounted to 1.0. Further, the “isoTOP-ABPP ratio, cysteine P09110_C381” value in test [4] (100 μM in situ 231) was 0.8. In addition, in test [1] (100 μM in situ 231), the “isoTOP-ABPP ratio, cysteine Q96RU2_C171” value is listed as 2.2. Moreover, in test [2] (100 μM in situ 231), the “isoTOP-ABPP ratio Q96C19_C172” value is reported as 0.9.

For the molecule `COc1ccccc1OCCNC(=O)CCl` [compound 28], the “isoTOP-ABPP ratio O75362_C286” value in test [3] (200 μM, insitu, 231) is 0.9. In addition, the “isoTOP-ABPP ratio P09110_C381” value in test [4] (200 μM, insitu, 231) is 0.8. Besides, in test [1] (200 μM, insitu, 231), the “isoTOP-ABPP ratio, Q96RU2_C171” value is 1.1.

In the case of `O=C(CCl)NCCc1c[nH]c2ccccc12` [compound 13], the “isoTOP-ABPP ratio, cysteine Q15345_C297” value in test [5] (200 μM, insitu, 231) is 1.6. Moreover, the “isoTOP-ABPP ratio O75362_C286” value in test [3] (200 μM, insitu, 231) worked out at 1.1; in test [3] (200 μM, insitu, ramos), 20.0. For the same molecule, the “isoTOP-ABPP ratio Q96C19_C172” value in test [2] (200 μM, insitu, 231) was 0.7.

Consider `Cc1ccc(C=C(C#N)C(=O)NCCN2CCOCC2)cc1` [compound 41], for which the “isoTOP-ABPP ratio Q15345_C297” value in test [5] (200 μM, insitu, 231) is on record as 0.8. In addition, in test [3] (200 μM, insitu, 231), the “isoTOP-ABPP ratio O75362_C286” value is 1.0. Moreover, the “isoTOP-ABPP ratio P09110_C381” value in test [4] (200 μM, insitu, 231) was 0.9. The “isoTOP-ABPP ratio Q96C19_C172” value in test [2] (200 μM, insitu, 231) is listed as 0.5.

In the case of `C=CC(=O)Nc1cc(F)c(N2CCN(C(=O)OC(C)(C)C)CC2)c(F)c1` [compound 38], the “isoTOP-ABPP ratio Q15345_C297” value in test [5] (200 μM, insitu, 231) was found to be 1.4. The “isoTOP-ABPP ratio P09110_C381” value in test [4] (200 μM, insitu, 231) was determined as 0.8. In addition, the “isoTOP-ABPP ratio, Q96RU2_C171” value in test [1] (200 μM, insitu, 231) was determined as 0.8. Besides, the “isoTOP-ABPP ratio Q96C19_C172” value in test [2] (200 μM, insitu, 231) was found to be 0.7.

Turning to `C=CC(=O)N(Cc1cccnc1)c1cc(C(F)(F)F)cc(C(F)(F)F)c1` [compound 31], the “isoTOP-ABPP ratio Q15345_C297” value in test [5] (200 μM, insitu, 231) is 0.9. Further, the “isoTOP-ABPP ratio P09110_C381” value in test [4] (200 μM, insitu, 231) stood at 0.7. Moreover, the “isoTOP-ABPP ratio Q96C19_C172” value in test [2] (200 μM, insitu, 231) was found to be 1.6.

Regarding `COc1cc2c(cc1OC)CN(C(=O)CCl)CC2` [compound 8], the “isoTOP-ABPP reactivity P09110_C381 ACAA1” value in test [4] (200 μM, insitu, 231) was found to be 0.8. For the same molecule, in test [1] (200 μM, insitu, 231), the “isoTOP-ABPP reactivity Q96RU2_C171 USP28” value stood at 1.2.
